# Literature values as cited in patent US20240408163A1, “CAPILLARY NUTRITIONAL COMPLEX” (NATURAL FOLIC, S.L., priority 2023, published 2024).
structure (smiles),measurement,setting,value
CC1=C(/C=C/C(C)=C/C=C/C(C)=C/C=C/C=C(C)/C=C/C=C(C)/C=C/C2=C(C)C(=O)[C@@H](O)CC2(C)C)C(C)(C)C[C@H](O)C1=O [Astaxanthin],antioxidant power relative to coenzyme Q10,times more powerful than coenzyme Q10,800 times
same,antioxidant power relative to vitamin C,times more powerful than vitamin C,6000 times
